Tests used:
[1] = Compound cytotoxicity, XTT-based colorimetric assay; type: cell-based; settings: human; uninfected MT2 cells, day 4, XTT assay
Description: Compound cytotoxicity and the corresponding CC50 values were determined using the same protocol as described in the antiviral assay except that uninfected cells were used. Cytotoxicity was assessed on day 4 in uninfected MT2 cells by using a XTT (2,3-bis[2-Methoxy-4-nitro-5-sulfophenyl]-2H-tetrazolium-5-carboxyanilide inner salt)-based colorimetric assay (Sigma-Aldrich, St Louis, Mo.).

[2] = tested on: recombinant NL4-3 virus; test: HIV cell culture assay (antiviral activity, luciferase readout); type: cell-based; settings: Human immunodeficiency virus 1, NL43, MT2, MT-2 cells infected for 4-5 days with recombinant NL4-3 virus carrying Renilla luciferase
Description: HIV cell culture assay—MT-2 cells, 293T cells and the proviral DNA clone of NL4-3 virus were obtained from the NIH AIDS Research and Reference Reagent Program. MT-2 cells were propagated in RPMI 1640 media supplemented with 10% heat inactivated fetal bovine serum (FBS), […]. The 293T cells were propagated in DMEM media supplemented with 10% heat inactivated FBS, […]. A recombinant NL4-3 proviral clone, in which a section of the nef gene was replaced with the Renilla luciferase gene, was used to make the reference virus used in these studies. The recombinant virus was prepared through transfection of the recombinant NL4-3 proviral clone into 293T cells using Transit-293 Transfection Reagent from Mirus Bio LLC (Madison, WI). Supernatent was harvested after 2-3 days and the amount of virus present was titered in MT-2 cells using luciferase enzyme activity as a marker by measuring luciferase enzyme activity. Luciferase was quantitated using the EnduRen Live Cell Substrate from Promega (Madison, Wis.). Antiviral activities of compounds toward the recombinant virus were quantified by measuring luciferase activity in MT-2 cells infected for 4-5 days with the recombinant virus in the presence of serial dilutions of the compound.
The 50% effective concentration (EC50) was calculated by using the exponential form of the median effect equation where (Fa)=1/[1+(ED50/drug conc.)m] (Johnson VA, Byington RT. Infectivity Assay. In Techniques in HIV Research. ed. Aldovini A, Walker BD. 71-76. New York: Stockton Press. 1990). The 50% inhibitory concentration (EC50) was calculated by using the exponential form of the median effect equation where percent inhibition=1/[1+(EC50/drug concentration)m], where m is a parameter that reflects the slope of the concentration-response curve.

For `Cn1nc(NS(C)(=O)=O)c2c(Cl)ccc(-n3c([C@H](Cc4cc(F)cc(F)c4)NC(=O)Cn4nc(C(F)F)c5c4C(F)(F)[C@@H]4C[C@H]54)nc4nc(-c5ccnnc5)ccc4c3=O)c21` (atropisomer, axis not shown; (P)) [Example 33, N-((S)-1-((3P)-3-(4-chloro-1-methyl-3-(methylsulfonamido)-1H-indazol-7-yl)-4-oxo-7-(pyridazin-4-yl)-3,4-dihydropyrido[2,3-d]pyrimidin-2-yl)-2-(3,5-difluorophenyl)ethyl)-2-((3bS,4aR)-3-(difluoromethyl)-5,5-difluoro-3b,4,4a,5-tetrahydro-1H-cyclopropa[3,4]cyclopenta[1,2-c]pyrazol-1-yl)acetamide], the CC50 at 4 day [1] was > 100 nM and the EC50 [2] was 0.45 nM.
In the case of `Cn1nc(NS(C)(=O)=O)c2c(Cl)ccc(-n3c([C@H](Cc4cc(F)cc(F)c4)NC(=O)Cn4nc(C(F)F)c5c4C(F)(F)[C@@H]4C[C@H]54)nc4nc(-c5cncc(Cl)c5)ccc4c3=O)c21` (atropisomer, axis not shown; (P)) [Example 29, N-((S)-1-((3P)-3-(4-chloro-1-methyl-3-(methylsulfonamido)-1H-indazol-7-yl)-7-(5-chloropyridin-3-yl)-4-oxo-3,4-dihydropyrido[2,3-d]pyrimidin-2-yl)-2-(3,5-difluorophenyl)ethyl)-2-((3bS,4aR)-3-(difluoromethyl)-5,5-difluoro-3b,4,4a,5-tetrahydro-1H-cyclopropa[3,4]cyclopenta[1,2-c]pyrazol-1-yl)acetamide], the CC50 at 4 day [1] is reported as > 100 nM and the EC50 [2] is reported as 0.057 nM.
For `Cn1nc(NS(C)(=O)=O)c2c(Cl)ccc(-n3c([C@H](Cc4cc(F)cc(F)c4)NC(=O)Cn4nc(C(F)F)c5c4C(F)(F)[C@@H]4C[C@H]54)nc4nc(-c5cccc(C(F)(F)F)c5)ccc4c3=O)c21` (atropisomer, axis not shown; (P)) [Example 24, N-((S)-1-((3P)-3-(4-chloro-1-methyl-3-(methylsulfonamido)-1H-indazol-7-yl)-4-oxo-7-(3-(trifluoromethyl)phenyl)-3,4-dihydropyrido[2,3-d]pyrimidin-2-yl)-2-(3,5-difluorophenyl)ethyl)-2-((3bS,4aR)-3-(difluoromethyl)-5,5-difluoro-3b,4,4a,5-tetrahydro-1H-cyclopropa[3,4]cyclopenta[1,2-c]pyrazol-1-yl)acetamide], the CC50 at 4 day [1] was > 100 nM and the EC50 [2] was 0.16 nM.
In the case of `CCC(F)(F)Cn1ccc(-c2ccc3c(=O)n(-c4ccc(Cl)c5c(NS(C)(=O)=O)nn(C)c45)c([C@H](Cc4cc(F)cc(F)c4)NC(=O)Cn4nc(C(F)F)c5c4C(F)(F)[C@@H]4C[C@H]54)nc3n2)n1` (atropisomer, axis not shown; (P)) [Example 86, N-((S)-1-((3P)-3-(4-chloro-1-methyl-3-(methylsulfonamido)-1H-indazol-7-yl)-7-(1-(2,2-difluorobutyl)-1H-pyrazol-3-yl)-4-oxo-3,4-dihydropyrido[2,3-d]pyrimidin-2-yl)-2-(3,5-difluorophenyl)ethyl)-2-((3bS,4aR)-3-(difluoromethyl)-5,5-difluoro-3b,4,4a,5-tetrahydro-1H-cyclopropa[3,4]cyclopenta[1,2-c]pyrazol-1-yl)acetamide], the CC50 at 4 day [1] is reported as > 100 nM and the EC50 [2] is reported as 0.084 nM.
For `Cn1nc(NS(C)(=O)=O)c2c(Cl)ccc(-n3c([C@H](Cc4cc(F)cc(F)c4)NC(=O)Cn4nc(C(F)F)c5c4C(F)(F)[C@@H]4C[C@H]54)nc4nc(-c5cc(C(F)(F)F)ccn5)ccc4c3=O)c21` (atropisomer, axis not shown; (P)) [Example 16, N-((S)-1-((3P)-3-(4-chloro-1-methyl-3-(methylsulfonamido)-1H-indazol-7-yl)-4-oxo-7-(4-(trifluoromethyl)pyridin-2-yl)-3,4-dihydropyrido[2,3-d]pyrimidin-2-yl)-2-(3,5-difluorophenyl)ethyl)-2-((3bS,4aR)-3-(difluoromethyl)-5,5-difluoro-3b,4,4a,5-tetrahydro-1H-cyclopropa[3,4]cyclopenta[1,2-c]pyrazol-1-yl)acetamide], the CC50 at 4 day [1] was > 100 nM and the EC50 [2] was 0.052 nM.
For `Cn1nc(NS(C)(=O)=O)c2c(Cl)ccc(-n3c([C@H](Cc4cc(F)cc(F)c4)NC(=O)Cn4nc(C(F)F)c5c4C(F)(F)[C@@H]4C[C@H]54)nc4nc(-c5ccn(CC(F)F)n5)ccc4c3=O)c21` (atropisomer, axis not shown; (P)) [Example 79, N-((S)-1-((3P)-3-(4-chloro-1-methyl-3-(methylsulfonamido)-1H-indazol-7-yl)-7-(1-(2,2-difluoroethyl)-1H-pyrazol-3-yl)-4-oxo-3,4-dihydropyrido[2,3-d]pyrimidin-2-yl)-2-(3,5-difluorophenyl)ethyl)-2-((3bS,4aR)-3-(difluoromethyl)-5,5-difluoro-3b,4,4a,5-tetrahydro-1H-cyclopropa[3,4]cyclopenta[1,2-c]pyrazol-1-yl)acetamide], the CC50 at 4 day [1] was > 100 nM and the EC50 [2] was 0.047 nM.
With `Cn1nc(NS(C)(=O)=O)c2c(Cl)ccc(-n3c([C@H](Cc4cc(F)cc(F)c4)NC(=O)Cn4nc(C(F)F)c5c4C(F)(F)[C@@H]4C[C@H]54)nc4nc(-c5ccc(OC(F)F)cc5)ccc4c3=O)c21` (atropisomer, axis not shown; (P)) [Example 27, N-((S)-1-((3P)-3-(4-chloro-1-methyl-3-(methylsulfonamido)-1H-indazol-7-yl)-7-(4-(difluoromethoxy)phenyl)-4-oxo-3,4-dihydropyrido[2,3-d]pyrimidin-2-yl)-2-(3,5-difluorophenyl)ethyl)-2-((3bS,4aR)-3-(difluoromethyl)-5,5-difluoro-3b,4,4a,5-tetrahydro-1H-cyclopropa[3,4]cyclopenta[1,2-c]pyrazol-1-yl)acetamide] the CC50 at 4 day [1] was > 100 nM and the EC50 [2] was 0.34 nM.
For `Cn1nc(NS(C)(=O)=O)c2c(Cl)ccc(-n3c([C@H](Cc4cc(F)cc(F)c4)NC(=O)Cn4nc(C(F)F)c5c4C(F)(F)[C@@H]4C[C@H]54)nc4nc(-c5ccc(S(C)(=O)=O)cc5F)ccc4c3=O)c21` (atropisomer, axis not shown; (P)) [Example 32, N-((S)-1-((3P)-3-(4-chloro-1-methyl-3-(methylsulfonamido)-1H-indazol-7-yl)-7-(2-fluoro-4-(methylsulfonyl)phenyl)-4-oxo-3,4-dihydropyrido[2,3-d]pyrimidin-2-yl)-2-(3,5-difluorophenyl)ethyl)-2-((3bS,4aR)-3-(difluoromethyl)-5,5-difluoro-3b,4,4a,5-tetrahydro-1H-cyclopropa[3,4]cyclopenta[1,2-c]pyrazol-1-yl)acetamide], the CC50 at 4 day [1] was > 100 nM and the EC50 [2] was 0.075 nM.
In the case of `Cn1nc(NS(C)(=O)=O)c2c(Cl)ccc(-n3c([C@H](Cc4cc(F)cc(F)c4)NC(=O)Cn4nc(C(F)F)c5c4C(F)(F)[C@@H]4C[C@H]54)nc4nc(-c5cnccn5)ccc4c3=O)c21` (atropisomer, axis not shown; (P)) [Example 8, N-((S)-1-((3P)-3-(4-chloro-1-methyl-3-(methylsulfonamido)-1H-indazol-7-yl)-4-oxo-7-(pyrazin-2-yl)-3,4-dihydropyrido[2,3-d]pyrimidin-2-yl)-2-(3,5-difluorophenyl)ethyl)-2-((3bS,4aR)-3-(difluoromethyl)-5,5-difluoro-3b,4,4a,5-tetrahydro-1H-cyclopropa[3,4]cyclopenta[1,2-c]pyrazol-1-yl)acetamide], the CC50 at 4 day [1] is reported as > 100 nM and the EC50 [2] is reported as 0.019 nM.

— US20220389007A1, “INHIBITORS OF HUMAN IMMUNODEFICIENCY VIRUS REPLICATION” (VIIV HEALTHCARE UK (No. 5) LIMITED, priority 2019, published 2022)
